Experimental data as given in paper PMC4364341, “NBD delivery improves the disease phenotype of the golden retriever model of Duchenne muscular dystrophy” (Skeletal Muscle, 2014).

Tested on: mdx mice
Experiment: Histopathology of quadriceps muscles of NBD-treated mdx mice
Assay type: in vivo, mouse
Conditions: 4 weeks, Quad muscles
Description: Mdx mice (C57BL/10ScSn-DMD^mdx/J) were purchased from The Jackson Laboratory and housed in the animal facility (University Laboratory Animal Resources, ULAR) at The Ohio State University under conventional conditions with constant temperature and humidity, and fed with standard diet. Treatment of mice was performed between 5 and 7 weeks of age as earlier described, and in accordance with the guidelines of the Institutional Animal Care and Use Committee at The Ohio State University. Efficacy of NBD was assessed comparing four groups (n = 5 each) of mdx mice treated either with vehicle or 3, 2, or 1 × per week with NBD by intraperitoneal (IP) delivery. Two separate groups (n = 10) were dosed subcutaneously (SQ) with vehicle or NBD, and finally two groups (n = 5) were treated with vehicle or NBD by intravenous (IV) delivery. Vascular access ports (VAP) were placed subcutaneously over the dorsal torso and a catheter was surgically inserted into the jugular vein. The catheter was kept clear by a pre- and post-wash with heparin.
For mice muscles, histopathological assessment was performed as earlier described. For canine samples, CS, lateral gastrocnemius, vastus lateralis, and diaphragm muscles were assessed at the end of the 4-month treatment period when dogs were necropsied. Muscle samples were snap frozen in isopentane cooled in liquid nitrogen, and stored at -80°C. A total of 16 dogs (3 wild type, 2 wild type + NBD, 5 untreated GRMD, and 6 GRMD + NBD) were assessed. […] For each stain, quantitation was performed on three 10 μm sections of each muscle. To determine the degree of inflammation, cells that stained with a canine specific macrophage PM2K antibody were quantitated. Muscle damage was assessed by scoring for IgG-positive myofibers using immunofluorescence, and necrotic foci by hematoxylin and eosin (H&E) staining. Centrally located nuclei (CLN) were quantified on H&E sections to determine the degree of regeneration. Staining was quantitated on an Olympus BX51 microscope with Microsuite Five software (Olympus Soft Imaging Solutions GmbH, Center Valley, PA, USA). […]

**Q.** For “TALDWSWLQTE [NBD, NBD peptide (…) fused to an Antennapedia protein transduction domain]”, which “Histopathologic improvement with reduced treatment frequencies” value (IP 10 mg/kg, 2x or 1x per week compared to 3x per week, n = 5 per group) is on record?
**A.** The value was “less pronounced”.

**Q.** What about the “Histopathologic improvement after intravenous dosing” value (IV via VAP, 10 mg/kg 3x weekly, n = 5 per group) of the same sequence?
**A.** The value was “significant histopathologic improvement”.

**Q.** And the “Reduction of muscle inflammation and necrosis after subcutaneous dosing” value (SQ 10 mg/kg 3x weekly, n = 10 per group)?
**A.** Its value is “no such improvements were observed”.
